According to US20150368669A1, “GENE DELIVERY SYSTEM […] GENE AND PHARMACEUTICAL COMPOSITION USING RELAXIN” (INDUSTRY-ACADEMIC COOPERATION FOUNDATION, YONSEI UNIVERSITY, priority 2004, published 2015):

How the values were obtained:
Assay type in all cases: cell-based, human
[1] = tested on: C33A cells; assay: Flow cytometry, Annexin-V and PI dual staining, C33A
Description: To examine apoptosis induced by relaxin, human tumor cell lines, U343, U87MG, C33A, Hep3B and A549, were introduced to 25 T culture flasks and 24 hr later, infected with Ad-ΔE1B or Ad-ΔE1B-RLX adenovirus at an MOT of 0.5-5. Cells were treated with 0.1-1 μM CPT-11 […] as a positive control and treated with PBS as a negative control. After 48 hr, 72 hr and 96 hr of infection, the infected cells were collected and fixed in 70% ethanol at 4° C. for 24 hr. Following the fixation, the cells were incubated with a mixture of PI (propidium iodide, […]) and RNase for 15 min and the analysis by flow cytometry was performed. In addition, to examine early apoptosis induced by relaxin, several human tumor cell lines were infected with Ad-ΔE1B or Ad-ΔE1B-RLX adenovirus as described above. The infected cells were collected and then processed for Annexin V/PI dual staining according to manufacturer's instruction in the ApoAlert V-FITC apoptosis kit (Clontech, Palo Alto, Calif.), followed by flow cytometric analysis.

[2] = tested on: U343; assay: TUNEL assay, U343
Description: (§1) U343 (5×10^4), U87MG (5×10^4), C33A (5×10^5), Hep3B (4×10^5), and A549 (5×10^4) cells were plated onto a chamber slide and then infected with adenovirus at an MOT of 0.2-20. Following 24 hr and 48 hr of infection, medium was removed and TUNNEL assay was carried out according to the manufacturer's instruction of ApopTag kit (Intergen, Purchase, N.Y.). For color development, cells were incubated with peroxidase-conjugated streptavidin and then diaminobenzidine (DAKO, Carpinteria, Calif.). At the time that color of cells became brown, cells were counterstained with 0.5% methyl green for 10 min and observed under microscope in more than 4 selected fields. The ratio of stained cells to total cells was calculated.

[3] = tested on: U87MG; assay: TUNEL assay, U87MG
Description: as §1

[4] = tested on: C33A; assay: TUNEL assay, C33A
Description: as §1

[5] = tested on: Hep3B; assay: TUNEL assay, Hep3B
Description: as §1

[6] = tested on: A549; assay: TUNEL assay, A549
Description: as §1

CC[C@@]1(O)C(=O)OCc2c1cc1n(c2=O)Cc2cc3ccccc3nc2-1 [CPT, camptothecin]
apoptotic rate (Annexin-V+/PI−) [1]: 57.10% | Proportion of apoptotic cells (%) [2]: 53.5 ± 7.45% | Proportion of apoptotic cells (%) [3]: 83.0 ± 29.29% | Proportion of apoptotic cells (%) [4]: 60.1 ± 25.41% | Proportion of apoptotic cells (%) [5]: 71.2 ± 15.73% | Proportion of apoptotic cells (%) [6]: 37.5 ± 5.35%
